Here are results for eleven compounds from ChEMBL document CHEMBL1201862, “PubChem BioAssay data set” (2004).

Assay in all cases: NCI anticancer screen, dose series, 48 h
Assay [1] has as its system A549.
Assay [2] deals with ACHN.
The subject of assay [3] is COLO 205.
For assay [4], the system named is HCC 2998.
Assay [5] has as its system HCT-15.
In assay [6] the test system is HL-60.
Assay [7] relates to K562.
Assay [8] deals with LOX IMVI.
In assay [9] the test system is MOLT-4.
The subject of assay [10] is NCI-H23.
For assay [11], the system named is OVCAR-4.
The test system of assay [12] is OVCAR-8.
The test system of assay [13] is SF-268.
The test system of assay [14] is SNB-19.
The subject of assay [15] is SNB-75.
For assay [16], the system named is SR.
For assay [17], the system named is U-251.
The test system of assay [18] is UACC-257.
Assay [19] has as its system UO-31.
The subject of assay [20] is HOP-92.

SMILES strings stand for the structures.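 Briefly, cells in 96-well plates were exposed to five compound concentrations for 48 h, and endpoints were estimated by linear interpolation. GI50 marks 50% less growth.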 Activity calls are given as the source filed them. Rule as the data show it: active = GI50 up to about 1.1 µM and inactive = higher. Some results are limits rather than exact numbers.

Take `N#CC1=C(N)N(c2ccccc2)C(c2ccco2)C1(C#N)C#N` (configuration not stated): the GI50 in assay [1] is 38.2 µM (inactive); in assay [2] it was 16.7 µM (inactive); in [3] it was 19.4 µM (inactive); in assay [4] it was 16.4 µM (inactive); in assay [5], 18.3 µM; in assay [6], 17.5 µM (inactive). The GI50 in assay [7] is 6.58 µM (inactive); in assay [8], 16.7 µM (inactive); in assay [9] it was 25.5 µM (inactive); in assay [10], 19.9 µM (inactive); in [11], 21.3 µM (inactive); in [12], 23.3 µM (inactive). Moreover, the GI50 in [13] was 34.7 µM (inactive); in assay [14], 26.9 µM (inactive); in assay [15], 20 µM (inactive); in assay [16], 20.5 µM (inactive); in assay [17] it was 21.8 µM (inactive); in assay [18] it was 18.4 µM (inactive). In addition, the GI50 in assay [19] is 18.7 µM (inactive).

`N#CCCOCN(CO)c1nc(N(CO)COCCC#N)nc(N(CO)COCCC#N)n1`: the GI50 in assay [1] was 26.1 µM (inactive); in [2] it was 28.6 µM (inactive); in assay [3], 18.4 µM (inactive); in assay [5], 18.2 µM; in assay [6], 17.7 µM (inactive); in [20] it was 23.4 µM (inactive). Also, the GI50 is 25 µM (inactive) in assay [7]; 31.8 µM (inactive) in [8]; 21.9 µM (inactive) in [9]; 31.2 µM (inactive) in assay [10]; 26.9 µM (inactive) in assay [11]; 15.8 µM (inactive) in assay [12]. The GI50 is 23.1 µM (inactive) in assay [13]; 53.6 µM (inactive) in [14]; 17.3 µM (inactive) in [16]; > 100 µM (inactive) in assay [17]; 28 µM (inactive) in assay [18]; 21.7 µM (inactive) in assay [19].

Consider `O=C1c2ccccc2OCC12OC21C=CC(Cl)=CC1` (configuration not stated), for which the GI50 is 18.6 µM (inactive) in [1]; 38.5 µM (inactive) in [2]; 18 µM (inactive) in [3]; 19.1 µM (inactive) in assay [4]; 28.6 µM in assay [5]; 15.7 µM (inactive) in [6]. Also, the GI50 is 36.1 µM (inactive) in [20]; 16.6 µM (inactive) in assay [7]; 13.5 µM (inactive) in assay [8]; 0.113 µM (active) in assay [9]; 16 µM (inactive) in assay [10]; 12.4 µM (inactive) in assay [11]. Further, the GI50 in assay [13] is 35.5 µM (inactive); in assay [14], 29.8 µM (inactive); in [16], 2.07 µM (inactive); in [17], 17.3 µM (inactive); in assay [18], 32.2 µM (inactive); in assay [19] it was 29.6 µM (inactive).

On to `COc1cc(Cc2ccc3c(c2C#N)N(C)c2ccccc2S3)cc(OC)c1OC`, for which the GI50 in assay [1] was 9.4 µM (inactive); in [2], 41.4 µM (inactive); in assay [3], 36.9 µM (inactive); in [5] it was 11 µM; in assay [6], 13.7 µM (inactive); in [20], 48.5 µM (inactive). Further, the GI50 is 4.39 µM (inactive) in assay [7]; 8.15 µM (inactive) in assay [8]; 13.7 µM (inactive) in assay [9]; 4.14 µM (inactive) in [10]; > 100 µM (inactive) in [11]; 19.8 µM (inactive) in assay [12]. In addition, the GI50 in assay [13] is > 100 µM (inactive); in assay [14] it was 53.5 µM (inactive); in [16] it was 6.14 µM (inactive); in [17], 27.2 µM (inactive); in assay [18], 12.1 µM (inactive); in assay [19] it was 30.9 µM (inactive).

Regarding `CSc1nc(N)c2c(-c3ccccc3)c3c(nc2n1)CCCC3`, the GI50 in [1] was > 100 µM (inactive); in [2], > 100 µM (inactive); in [3], > 100 µM (inactive); in [5] it was more than 100 µM; in [6] it was > 100 µM (inactive); in assay [7], > 100 µM (inactive). The GI50 in [8] was > 100 µM (inactive); in assay [9], > 100 µM (inactive); in assay [10], > 100 µM (inactive); in [11], 29.6 µM (inactive); in assay [12], 20.8 µM (inactive); in [13], > 10 µM (inactive). Also, the GI50 was > 100 µM (inactive) in assay [14]; 31.3 µM (inactive) in assay [15]; > 100 µM (inactive) in assay [16]; > 100 µM (inactive) in [17]; > 100 µM (inactive) in assay [18]; 3.38 µM (inactive) in assay [19].

With `COc1ccc(-c2nnc(-c3ccncc3)o2)cc1`, the GI50 in assay [1] is > 100 µM (inactive); in assay [2] it was > 100 µM (inactive); in [3], > 100 µM (inactive); in [5], more than 100 µM; in assay [6], > 100 µM (inactive); in [20], > 100 µM (inactive). Moreover, the GI50 in assay [7], in assay [8], in assay [9], in assay [10], in assay [11] and in [12] was > 100 µM (inactive) each time. Also, the GI50 is > 100 µM (inactive) in assay [13]; 78.7 µM (inactive) in assay [14]; > 100 µM (inactive) in assay [15]; > 100 µM (inactive) in assay [16]; > 100 µM (inactive) in assay [17]; > 100 µM (inactive) in assay [18]. In addition, in assay [19], the GI50 was > 100 µM (inactive).

Consider `COc1cc([N+](=O)[O-])ccc1NC(=O)c1cccc([N+](=O)[O-])c1O`, for which the GI50 was 21.8 µM (inactive) in assay [1]; 12.6 µM (inactive) in [2]; 16 µM (inactive) in assay [3]; 19 µM (inactive) in assay [4]; 18.1 µM in assay [5]; 19.9 µM (inactive) in assay [6]. The GI50 is 20.8 µM (inactive) in assay [7]; 22.2 µM (inactive) in assay [8]; 30.9 µM (inactive) in assay [9]; 20.4 µM (inactive) in assay [10]; 23.4 µM (inactive) in [11]; 29 µM (inactive) in [12]. For the same compound, the GI50 in assay [13] was 32.5 µM (inactive); in assay [14] it was 41.5 µM (inactive); in [15], 21.1 µM (inactive); in assay [16] it was 17.8 µM (inactive); in assay [17], 40.1 µM (inactive); in assay [18], 17.8 µM (inactive). Besides, the GI50 in [19] is 16.2 µM (inactive).

On to `COc1ccc(C2ON(c3ccccn3)CC=C2C)cc1` (configuration not stated), for which the GI50 in [1] is > 100 µM (inactive); in assay [2] it was > 100 µM (inactive); in assay [3] it was > 100 µM (inactive); in assay [4], > 100 µM (inactive); in assay [5], more than 100 µM; in [6] it was > 100 µM (inactive). Moreover, the GI50 was > 100 µM (inactive) in assay [7]; > 100 µM (inactive) in assay [8]; 96.4 µM (inactive) in [9]; 78.3 µM (inactive) in [10]; > 100 µM (inactive) in [11]; > 100 µM (inactive) in assay [12]. Moreover, the GI50 in [13] is > 100 µM (inactive); in assay [14] it was > 100 µM (inactive); in [15], > 100 µM (inactive); in [16], 58.9 µM (inactive); in [17] it was > 100 µM (inactive); in assay [18], > 100 µM (inactive). Also, in [19], the GI50 is 34.5 µM (inactive).

In the case of `CCN(/N=C1\CC2C=CCN(C2)C(=O)Cc2c1[nH]c1ccccc21)S(=O)(=O)c1ccc(C)cc1` (configuration not stated), the GI50 was 49.8 µM (inactive) in assay [1]; > 100 µM (inactive) in [2]; 68.2 µM (inactive) in assay [3]; > 100 µM (inactive) in [4]; 85.9 µM in assay [5]; 73.1 µM (inactive) in assay [6]. In addition, the GI50 in [7] was 71.6 µM (inactive); in assay [8], > 100 µM (inactive); in assay [9], 59.4 µM (inactive); in [10], 87.5 µM (inactive); in assay [11], 51.8 µM (inactive); in [12], 78 µM (inactive). For the same compound, the GI50 in assay [14] was 81.8 µM (inactive); in assay [15], 35.6 µM (inactive); in assay [16], 64.4 µM (inactive); in [17] it was > 100 µM (inactive); in assay [18] it was 94.2 µM (inactive); in assay [19] it was 39.4 µM (inactive).

On to `O=C1OC(c2ccc(O)c(F)c2)(c2ccc(O)c(F)c2)c2cccc3cccc1c23`, for which the GI50 is > 25 µM (inactive) in assay [1]; > 25 µM (inactive) in [2]; 1.26 µM (inactive) in assay [3]; more than 25 µM in assay [5]; 5.57 µM (inactive) in assay [6]; > 25 µM (inactive) in [20]. For the same compound, the GI50 in assay [7] was 14.8 µM (inactive); in [8], > 25 µM (inactive); in assay [9], 5.35 µM (inactive); in assay [10], > 25 µM (inactive); in [11], 0.0601 µM (active); in assay [12] it was > 25 µM (inactive). In addition, the GI50 was > 25 µM (inactive) in assay [13]; > 25 µM (inactive) in assay [14]; 8.04 µM (inactive) in assay [16]; > 25 µM (inactive) in [17]; > 25 µM (inactive) in [18]; > 25 µM (inactive) in assay [19].

For `Cc1ccc(NC(=O)c2cccc([N+](=O)[O-])c2O)c(C)c1`, the GI50 in [1] was 15.9 µM (inactive); in [2], 16.8 µM (inactive); in assay [3], 23.9 µM (inactive); in assay [4], 40.4 µM (inactive); in assay [6], 17.2 µM (inactive); in assay [7], 21 µM (inactive). Further, the GI50 is 11.9 µM (inactive) in [8]; 19.3 µM (inactive) in assay [9]; 23 µM (inactive) in assay [10]; 11.6 µM (inactive) in assay [11]; 22.9 µM (inactive) in assay [12]; 34.8 µM (inactive) in [13]. Further, the GI50 in assay [14] is 24.2 µM (inactive); in assay [15] it was 23.5 µM (inactive); in assay [16], 22.3 µM (inactive); in [17] it was 24 µM (inactive); in [18], 14 µM (inactive); in assay [19] it was 3.31 µM (inactive).
